Test results from ChEMBL document CHEMBL3868595, “Plazomicin is effective in a non-human primate pneumonic plague model” (Bioorg Med Chem, 2016).

Legend:
Yersinia pestis [1] = assay: Antibacterial activity against Yersinia pestis Colorado 92 infected in African green monkey B6988 model assessed as bacterial burden in heart at 6.25 mg/kg, iv administered within 6 hrs post onset of sustained fever as 30 mins infusion for 5 days (reference value: 2.6 10^7CFU/g); assay type: functional, CO92
Yersinia pestis [2] = assay: Antibacterial activity against Yersinia pestis Colorado 92 infected in African green monkey B6436 model assessed as bacterial burden in lung at 25 mg/kg, iv administered within 6 hrs post onset of sustained fever as 30 mins infusion for 5 days (reference value: 7.7 10^8CFU/g); assay type: functional, CO92
Yersinia pestis [3] = assay: Antibacterial activity against Yersinia pestis Colorado 92 infected in African green monkey B6889 model assessed as bacterial burden in spleen at 6.25 mg/kg, iv administered within 6 hrs post onset of sustained fever as 30 mins infusion for 5 days (reference value: 1.6 10^9CFU/g); assay type: functional, CO92
African green monkey [4] = assay: Toxicity in African green monkey 7653 model infected with Yersinia pestis Colorado 92 assessed as blood urea nitrogen level at 25 mg/kg, iv administered within 6 hrs post onset of sustained fever as 30 mins infusion for 10 days (reference value: 22 mg/dl); assay type: organism-based; conditions: chlorocebus sabaeus, in vivo
Yersinia pestis [5] = assay: (§1) Antibacterial activity against Yersinia pestis Colorado 92 infected in African green monkey B6873 model assessed as bacterial burden in lung at 12.5 mg/kg, iv administered within 6 hrs post onset of sustained fever as 30 mins infusion for 5 days (reference value: 7.7 10^8CFU/g); assay type: functional, CO92
African green monkey [6] = assay: Toxicity in African green monkey B6127 model infected with Yersinia pestis Colorado 92 assessed as weight loss at 25 mg/kg, iv administered within 6 hrs post onset of sustained fever as 30 mins infusion for 10 days measured from day 7 to 14 post dose; assay type: organism-based; conditions: chlorocebus sabaeus, in vivo
African green monkey [7] = assay: Toxicity in African green monkey B6127 model infected with Yersinia pestis Colorado 92 assessed as inappetence at 25 mg/kg, iv administered within 6 hrs post onset of sustained fever as 30 mins infusion for 10 days; assay type: organism-based; conditions: chlorocebus sabaeus, in vivo
Yersinia pestis [8] = assay: Antibacterial activity against Yersinia pestis Colorado 92 infected in African green monkey C2083 model assessed as bacterial burden in brain at 12.5 mg/kg, iv administered within 6 hrs post onset of sustained fever as 30 mins infusion for 5 days (reference value: 1.9 10^6CFU/g); assay type: functional, CO92
[9] = Volume of distribution at steady state in African green monkey blood at 25 mg/kg administered as iv infusion twice daily for 7 consecutive days measured on day 1 by LC-MS/MS analysis; assay type: ADME, organism-based; conditions: chlorocebus aethiops, read-out: Vdss
African green monkey [10] = assay: Toxicity in African green monkey assessed as effect on serum creatinine level at 35 mg/kg administered as iv infusion twice daily for 7 consecutive days measured on day 1 by LC-MS/MS analysis; assay type: organism-based; conditions: chlorocebus sabaeus, in vivo
African green monkey [11] = assay: Toxicity in African green monkey B5994 model infected with Yersinia pestis Colorado 92 assessed as serum alanine aminotransferase level at 25 mg/kg, iv administered within 6 hrs post onset of sustained fever as 30 mins infusion for 10 days (reference value: 62 IU/L); assay type: organism-based; conditions: chlorocebus sabaeus, in vivo
Yersinia pestis [12] = assay: Antibacterial activity against Yersinia pestis Colorado 92 infected in African green monkey B6988 model assessed as bacterial burden in kidney at 6.25 mg/kg, iv administered within 6 hrs post onset of sustained fever as 30 mins infusion for 5 days (reference value: 7.1 10^7CFU/g); assay type: functional, CO92
Yersinia pestis [13] = assay: Antibacterial activity against Yersinia pestis Colorado 92 infected in African green monkey B6436 model assessed as bacterial burden in kidney at 25 mg/kg, iv administered within 6 hrs post onset of sustained fever as 30 mins infusion for 5 days (reference value: 7.1 10^7CFU/g); assay type: functional, organism-based; conditions: CO92
Yersinia pestis [14] = assay: Antibacterial activity against Yersinia pestis Colorado 92 infected in African green monkey B6861 model assessed as bacterial burden in heart at 6.25 mg/kg, iv administered within 6 hrs post onset of sustained fever as 30 mins infusion for 5 days (reference value: 2.6 10^7CFU/g); assay type: functional, CO92
Yersinia pestis [15] = assay: Antibacterial activity against Yersinia pestis Colorado 92 infected in African green monkey C2083 model assessed as bacterial burden in liver at 12.5 mg/kg, iv administered within 6 hrs post onset of sustained fever as 30 mins infusion for 5 days (reference value: 5.2 10^8CFU/g); assay type: functional, CO92
Yersinia pestis [16] = assay: Antibacterial activity against Yersinia pestis Colorado 92 infected in African green monkey B6106 model assessed as bacterial burden in heart at 25 mg/kg, iv administered within 6 hrs post onset of sustained fever as 30 mins infusion for 5 days (reference value: 2.6 10^7CFU/g); assay type: functional, organism-based; conditions: CO92
African green monkey [17] = assay: Toxicity in African green monkey B6291 model infected with Yersinia pestis Colorado 92 assessed as serum creatinine level at 25 mg/kg, iv administered within 6 hrs post onset of sustained fever as 30 mins infusion for 10 days (reference value: 0.6 mg/dl); assay type: organism-based; conditions: chlorocebus sabaeus, in vivo
[18] = Cmax in African green monkey blood at 35 mg/kg administered as iv infusion twice daily for 7 consecutive days measured on day 1 by LC-MS/MS analysis; assay type: ADME, organism-based; set-up: dose 35 mg/kg, route intravenous; conditions: chlorocebus aethiops
African green monkey [19] = assay: Toxicity in African green monkey 7972 model infected with Yersinia pestis Colorado 92 assessed as serum lactate dehydrogenase level at 25 mg/kg, iv administered within 6 hrs post onset of sustained fever as 30 mins infusion for 10 days (reference value: 381 IU/L); assay type: organism-based; conditions: chlorocebus sabaeus, in vivo
African green monkey [20] = assay: Toxicity in African green monkey B6127 model infected with Yersinia pestis Colorado 92 assessed as dehydration at 25 mg/kg, iv administered within 6 hrs post onset of sustained fever as 30 mins infusion for 10 days; assay type: organism-based; conditions: chlorocebus sabaeus, in vivo
Yersinia pestis [21] = assay: Antibacterial activity against Yersinia pestis Colorado 92 infected in African green monkey C2149 model assessed as bacterial burden in brain at 6.25 mg/kg, iv administered within 6 hrs post onset of sustained fever as 30 mins infusion for 5 days (reference value: 1.9 10^6CFU/g); assay type: functional, CO92
Yersinia pestis [22] = assay: Antibacterial activity against Yersinia pestis Colorado 92 infected in African green monkey B6783 model assessed as bacterial burden in liver at 12.5 mg/kg, iv administered within 6 hrs post onset of sustained fever as 30 mins infusion for 5 days (reference value: 5.2 10^8CFU/g); assay type: functional, CO92
Yersinia pestis [23] = assay: as §1, with “B6783” for “B6873”, “tracheobronchial lymph nodes” for “lung”, “10^9CFU/g)” for “10^8CFU/g)”; assay type: functional, CO92, Lymph node
Yersinia pestis [24] = assay: Antibacterial activity against Yersinia pestis Colorado 92 infected in African green monkey B6872 model assessed as bacterial burden in brain at 25 mg/kg, iv administered within 6 hrs post onset of sustained fever as 30 mins infusion for 5 days (reference value: 1.9 10^6CFU/g); assay type: functional, CO92
African green monkey [25] = assay: Toxicity in African green monkey 8067 model infected with Yersinia pestis Colorado 92 assessed as serum lactate dehydrogenase level at 25 mg/kg, iv administered within 6 hrs post onset of sustained fever as 30 mins infusion for 10 days (reference value: 287 IU/L); assay type: organism-based; conditions: chlorocebus sabaeus, in vivo
Yersinia pestis [26] = assay: Antibacterial activity against Yersinia pestis Colorado 92 infected in African green monkey B6988 model assessed as bacterial burden in spleen at 6.25 mg/kg, iv administered within 6 hrs post onset of sustained fever as 30 mins infusion for 5 days (reference value: 1.6 10^9CFU/g); assay type: functional, CO92
[27] = Clearance in African green monkey blood at 35 mg/kg administered as iv infusion twice daily for 7 consecutive days measured on day 1 by LC-MS/MS analysis; assay type: ADME, organism-based; conditions: chlorocebus aethiops

Molecule CN[C@@H]1[C@@H](O)[C@@H](O[C@@H]2[C@@H](O)[C@H](O[C@H]3OC(CNCCO)=CC[C@H]3N)[C@@H](N)C[C@H]2NC(=O)[C@@H](O)CCN)OC[C@]1(C)O [PLAZOMICIN] has an Activity (Yersinia pestis [1]) of 4.5 ×10⁶ CFU/g, an Activity (Yersinia pestis [2]) of 44 CFU/g and an Activity (Yersinia pestis [3]) of 6.2 ×10⁶ CFU/g. For the same molecule, the Activity (African green monkey [4]) was 26 mg/dL, the Activity (Yersinia pestis [5]) was 16 CFU/g and the Activity (African green monkey [6]) was “Toxic”. For the same molecule, the Activity (African green monkey [7]) was “Toxic”, the Activity (Yersinia pestis [8]) was 2.2 ×10⁶ CFU/g and the Vd [9] was 0.33 L/kg. The Activity (African green monkey [10]) was 0.6 mg/dL, the Activity (African green monkey [11]) was 46 IU/L and the Activity (Yersinia pestis [12]) was 23 CFU/g. The Activity (Yersinia pestis [13]) was “Below limit of detection”, the Activity (Yersinia pestis [14]) was 16 CFU/g and the Activity (Yersinia pestis [15]) was 4.5 ×10⁹ CFU/g. For the same molecule, the Activity (Yersinia pestis [16]) was “Below limit of detection”, the Activity (African green monkey [17]) was 0.5 mg/dL and the Cmax [18] was 176 µg/mL. The Activity (African green monkey [19]) was 398 IU/L, the Activity (African green monkey [20]) was “Toxic” and the Activity (Yersinia pestis [21]) was 46 CFU/g. The Activity (Yersinia pestis [22]) was 8.4 ×10⁶ CFU/g, the Activity (Yersinia pestis [23]) was 6.3 ×10⁹ CFU/g and the Activity (Yersinia pestis [24]) was 4.1 ×10⁶ CFU/g. The Activity (African green monkey [25]) was 478 IU/L, the Activity (Yersinia pestis [26]) was 17 CFU/g and the clearance [27] was 1.67 mL/min/kg.
